Experimental findings from patent US12285408B2, “Methods and compositions for the treatment of snake bite” (priority 2021, dated 2025) are described below.

Structures are written as SMILES.

Assay [1] has as its system procoagulant activities of viper venoms (E. ocellatus, E. carinatus, B. asper, D. russelii). Description: Plasma clotting assay, neutralization of procoagulant venom activity. The format is biochemical. The conditions noted are these: for IC50: range across all venoms, 100 ng venom, bovine plasma, read-out: IC50, inhibition of procoagulant activity. The text has this:
FIG. 11. SVMP-inhibitors neutralize the in vitro procoagulant activities of several geographically distinct viper venoms. […] The data presented represents the maximum clotting velocity, calculated as the maximum of the first derivative of each clotting curve, from triplicate independent repeat experiments with SEMs, where each technical repeat represents the mean of n≥2 technical replicates. EOC, E. ocellatus; ECAR, E. carinatus; BAS, Bothrops asper, BAR, Bitis arietans; DRUS, Daboia russelii. (B) Neutralization of procoagulant venom activity by four SVMP-inhibitors across four drug concentrations (150 μM to 150 nM). The data is expressed as the maximum clotting velocity at each dose. The negative (PBS) and positive (venom-only) controls are presented as intervals (bottom dashed and top dashed lines, respectively), with the latter representing the mean maximum clotting velocity in these samples±SEM. The data represent triplicate independent repeats with SEMs, where each technical repeat represents the mean of n≥2 technical replicates. Note the different y-axis scales.
Since SVMPs are key toxins associated with causing coagulopathy, we next investigated whether the same peptidomimetic and metal chelating inhibitors could also neutralize the procoagulant bioactivities of viper venoms. To do so, we used a validated kinetic absorbance-based assay monitoring plasma clotting^35 in the presence or absence of venoms and inhibitors (FIG. 11).
We used a previously developed plasma clotting assay^35 to measure venom-induced coagulation. Briefly, 100 ng of each venom was incubated at 37° C. for 30 min in the presence or absence of inhibitors (150 μM to 150 nM final concentrations). The final reaction consisted of 10 μl venom±inhibitors in PBS, 20 μl 20 mM CaCl2), and 20 μl citrated bovine plasma (VWR). The samples were pipetted in triplicate into 384-well plates, and absorbance monitored at 595 nm for 2 h at 25° C. on an Omega FLUOstar instrument. We calculated the maximum clotting velocity of each of the curves as per clot waveform analysis^67, by calculating the maximum of the first derivative. The means of at least three independent experimental runs for each condition were plotted at each inhibitor concentration with SEMs.

The test system of assay [2] is SVMP activity of E. ocellatus, E. carinatus, B. asper and B. arietans venoms. Description: In vitro kinetic fluorogenic SVMP assay (Study 2). Type of assay: biochemical. The source says:
FIG. 10. […] (A) SVMP activities of the five viper venoms quantified by fluorogenic assay. The data presented represent mean measurements and SEMs of area under the curves of fluorescent arbitrary units taken from three independent experimental runs. EOC, E. ocellatus; ECAR, E. carinatus; BAS, Bothrops asper, BAR, Bitis arietans; DRUS, Daboia russelii. (B) The effectiveness of metal chelators and peptidomimetic hydroxamate inhibitors at inhibiting the SVMP activity of the various viper venoms. Drug concentrations from 150 μM to 150 nM (highest to lowest dose tested) are presented. The data is expressed as percentage of the venom-only sample (100%, top dashed line). The negative control is presented as an interval (bottom dashed lines) and represents the values recorded in the PBS-only samples (expressed as percentage of venom activity), where the highest and the lowest values in each set of independent experiments are depicted. […] All data represent triplicate independent repeats with SEMs, where each technical repeat represents the mean of n≥2 technical replicates.
We used an in vitro kinetic fluorogenic assay^28 to assess the SVMP bioactivity of each venom and its inhibition by varying concentrations of the four SVMP-inhibitors.
The SVMP assay measuring metalloproteinase activity and the plasma assay measuring coagulation in the presence or absence of venoms and inhibitors were performed as previously described^28. The SVMP assay kinetically measured cleavage of a quenched fluorogenic substrate (ES010, R&D Biosystems) by venom in the presence or absence of inhibitors.
Briefly, 10 μl of the substrate (supplied as a 6.2 mM stock) was used per 5 ml reaction buffer (150 mM NaCl, 50 mM Tris-CI pH 7.5). Reactions consisted of 10 μl of venom±inhibitors in PBS and 90 μl of substrate. Venoms were used at 1 μg/reaction and final inhibitor concentrations ranged from 150 μM to 150 nM. Samples were preincubated for 30 min at 37° C. and pipetted in triplicate into 384-well plates (Greiner). Thereafter, data was collected on an Omega FLUOstar (BMG Labtech) instrument at an excitation wavelength of 320 nm and emission wavelength of 405 nm at 25° C. for 1 h. The areas under the curve (AUCs) in the 0-40 min interval were calculated for each sample using MARS data analysis software v3.31 (BMG Labtech); this time point was chosen as the time where all fluorescence curves had reached a plateau (maximum fluorescence). For comparing venom-only samples, the means of at least three independent experimental runs for each condition, expressed as AUCs (n≥3), were plotted at each inhibitor concentration with standard error of the mean (SEM). To determine inhibitor efficacy, the AUCs for each of the samples that consisted of venom+inhibitors were transformed and expressed as percentages of the venom-only sample (where the venom was 100%). The negative control (PBS only) was also expressed relative to the venom, and the variation in background was presented as an interval delineated by the lowest and highest values in the PBS-only samples across concentrations and inhibitors for a specific venom. […] However, only the latter two concentrations were sufficiently depleted of DMSO for viable use in the assay.

Assay [3] has as its system metalloproteinase activity of C. atrox, C. adamanteus and C. horridus venom. Briefly: In vitro snake venom metalloproteinase assay, North American rattlesnake venoms. The format is biochemical, Crotalus atrox, Crotalus adamanteus, Crotalus horridus. The conditions noted are these: 25 μM drug, 1 μg venom, range across the three rattlesnake venoms. The text has this: FIG. 6. […] Error bars represent standard deviation.
The remaining assay protocol with respects to fluorogenic substrate preparation, plate-read settings and data processing was the same as described above.
These species were selected for their clinical importance in the USA, namely: 1) Crotalus atrox (Western diamondback), which is found across the southwest USA and into Mexico and is thought to be the most common cause of snakebite envenoming in USA, 2) Crotalus horridus (Timber rattlesnake), which is found across Eastern and central USA, and is categorised as a Group I medically important snake by the World Health Organization. Furthermore, this species is not included in the immunising mixture of the current FDA-approved CroFab antivenom. 3) Crotalus adamanteus (Eastern diamondback), which is another Group I medically important snake, found in the South-East USA.

The test system of assay [4] is D. russelii venom coagulation-related activities. Description: Plasma clotting assay, whole D. russelii venom. The conditions noted are these: 150 μM to 150 nM. Type of assay: biochemical, Daboia russelii. How it is done: FIG. 12. […] The data is plotted separately for ‘very fast coagulation’, ‘medium coagulation’ and ‘anticoagulation’, based on the slopes of the 0-5 min and 0-20 min readings, and the single endpoint reading at 180 min. The tested inhibitor concentrations are presented alongside the chromatograms. […] The data is presented as the maximal clotting velocity at each concentration, and represents means of triplicate independent repeats with SEMs, where each technical repeat represents the mean of n≥2 technical replicates. The venom-only control (top dashed lines) and the negative control (bottom dashed lines) are presented as intervals and represent the average±SEM observed for the venom-only and PBS controls across all datasets and replicates.
We used a previously developed plasma clotting assay^35 to measure venom-induced coagulation. Briefly, 100 ng of each venom was incubated at 37° C. for 30 min in the presence or absence of inhibitors (150 μM to 150 nM final concentrations). […] The samples were pipetted in triplicate into 384-well plates, and absorbance monitored at 595 nm for 2 h at 25° C. on an Omega FLUOstar instrument. We calculated the maximum clotting velocity of each of the curves as per clot waveform analysis^67, by calculating the maximum of the first derivative. […]

`O=S(=O)(O)CC(S)CS` (stereo not shown) [DMPS, 2,3-dimercapto-1-propanesulfonic acid]: the “neutralization of procoagulant activities” value in assay [1] (E. ocellatus, E. carinatus and B. asper venoms, highest dose 150 μM) is “effective at neutralizing the procoagulant activities”. In addition, the IC50 lay in the range of 0.8 to 25.9 µM in assay [1] and 0.29 to 4.19 µM in assay [2] (range across venoms, 1 μg venom/reaction, read-out: IC50s, inhibition of SVMP activity). Besides, the “lowest concentration effective / required to fully inhibit SVMP activities” value in assay [2] (concentrations tested 150 μM to 150 nM) was found to be 15 µM. In assay [3], the “inhibition of metalloproteinase activity” value is 88.6-97.8%. For the same molecule, the “effect on procoagulant activity of whole D. russelii venom” value in assay [4] is recorded as “ineffective”.

Take `CNC(=O)[C@@H](NC(=O)[C@H](CC(C)C)[C@H](O)C(=O)NO)C(C)(C)C` [marimastat]: in assay [1], the IC50 fell in the range of 0.15 to 1.92 µM. In addition, in assay [2] (marimastat 150 nM-150 μM, batimastat […] and 150 nM only), the “neutralization of SVMP bioactivity” value is given as “complete in vitro neutralization”. Besides, the “inhibition of metalloproteinase activity” value in assay [3] was 90.9-99.1%. Further, the “effect on procoagulant activity of whole D. russelii venom” value in assay [4] was “revealed clear venom anticoagulant effects”.
